Assay results taken from ChEMBL document CHEMBL1201861, “Genomics of Drug Sensitity in Cancer screening data, Wellcome Trust Sanger Institute”.

Experiments:
Assay in all cases: cells
Conditions in all cases: Homo sapiens
SF-126 = format: functional, cell-based;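 further: growth inhibition of human SF126 cells, read out with a cell viability assay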
Description: SANGER: Inhibition of human SF126 cell growth in a cell viability assay.

TE-6 = format: functional, cell-based;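 further: growth inhibition of TE-6 cells, read out with a cell viability assay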
Description: SANGER: Inhibition of human TE-6 cell growth in a cell viability assay.

MMAC-SF = format: functional, cell-based;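 further: growth inhibition of human MMAC-SF cells, read out with a cell viability assay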
Description: SANGER: Inhibition of human MMAC-SF cell growth in a cell viability assay.

HCE-T = format: functional, cell-based;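 further: cell viability assay read-out, reporting inhibition of HCE-T cell growth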
Description: SANGER: Inhibition of human HCE-T cell growth in a cell viability assay.

ES4 = format: functional, cell-based;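 further: growth inhibition of human ES4 cells, read out by a cell viability assay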
Description: SANGER: Inhibition of human ES4 cell growth in a cell viability assay.

ETK-1 = format: functional, cell-based;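 further: growth inhibition of human ETK-1 cells, read out with a cell viability assay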
Description: SANGER: Inhibition of human ETK-1 cell growth in a cell viability assay.

KLE = format: functional, cell-based;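 further: growth inhibition of human KLE cells, read out with a cell viability assay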
Description: SANGER: Inhibition of human KLE cell growth in a cell viability assay.

ES1 = format: functional, cell-based;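 further: growth inhibition of ES1 cells, read out with a cell viability assay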
Description: SANGER: Inhibition of human ES1 cell growth in a cell viability assay.

A388 = format: functional, cell-based;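 further: growth inhibition of human A388 cells, read out with a cell viability assay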
Description: SANGER: Inhibition of human A388 cell growth in a cell viability assay.

ML-2 = format: functional, cell-based;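 further: growth inhibition of ML-2 cells, measured with a cell viability readout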
Description: SANGER: Inhibition of human ML-2 cell growth in a cell viability assay.

KNS-81-FD = format: functional, cell-based;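 further: growth inhibition of KNS-81-FD cells, read out with a cell viability assay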
Description: SANGER: Inhibition of human KNS-81-FD cell growth in a cell viability assay.

SK-PN-DW = format: functional, cell-based;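 further: growth inhibition measured with a viability assay on these cells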
Description: SANGER: Inhibition of human SK-PN-DW cell growth in a cell viability assay.

NB6 = format: functional, cell-based
Description: SANGER: Inhibition of human NB6 cell growth in a cell viability assay.

ES3 = format: functional, cell-based;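 further: growth inhibition of ES3 cells, read out with a cell viability assay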
Description: SANGER: Inhibition of human ES3 cell growth in a cell viability assay.

TGBC24TKB = format: functional, cell-based;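 further: growth inhibition of human TGBC24TKB cells, read out with a cell viability assay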
Description: SANGER: Inhibition of human TGBC24TKB cell growth in a cell viability assay.

MFH-ino = format: functional, cell-based;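 further: growth inhibition of human MFH-ino cells, read out by a cell viability assay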
Description: SANGER: Inhibition of human MFH-ino cell growth in a cell viability assay.

L-428 = format: functional, cell-based
Description: SANGER: Inhibition of human L-428 cell growth in a cell viability assay.

Ramos-2G6-4C10 = format: functional, cell-based;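 further: growth inhibition of the cell line, measured by a cell viability read-out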
Description: SANGER: Inhibition of human Ramos-2G6-4C10 cell growth in a cell viability assay.

BB65-RCC = format: functional, cell-based;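 further: growth inhibition of the cell line, measured with a cell viability assay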
Description: SANGER: Inhibition of human BB65-RCC cell growth in a cell viability assay.

COLO-824 = format: functional, cell-based
Description: SANGER: Inhibition of human COLO-824 cell growth in a cell viability assay.

BB30-HNC = format: functional, cell-based;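 further: growth inhibition of the cultured cell line, read out by a cell viability assay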
Description: SANGER: Inhibition of human BB30-HNC cell growth in a cell viability assay.

NCI-H1395 = format: functional, cell-based;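 further: cell viability assay read-out quantifying reduced proliferation of human NCI-H1395 cells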
Description: SANGER: Inhibition of human NCI-H1395 cell growth in a cell viability assay.

HuTu80 = format: functional, cell-based, HUTU-80;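 further: growth inhibition of HuTu80 human cells, determined with a cell viability readout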
Description: SANGER: Inhibition of human HUTU-80 cell growth in a cell viability assay.

HCE-4 = format: functional, cell-based;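 further: cell viability assay measuring inhibition of growth in the human HCE-4 cell line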
Description: SANGER: Inhibition of human HCE-4 cell growth in a cell viability assay.

SNB-75 = format: functional, cell-based;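 further: cell viability assay measuring growth inhibition of human SNB-75 cells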
Description: SANGER: Inhibition of human SNB75 cell growth in a cell viability assay.

LOX IMVI = format: functional, cell-based
Description: SANGER: Inhibition of human LOXIMVI cell growth in a cell viability assay.

GT3TKB = format: functional, cell-based;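 further: growth inhibition of the cell line, read out with a cell viability assay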
Description: SANGER: Inhibition of human GT3TKB cell growth in a cell viability assay.

HT = format: functional, cell-based
Description: SANGER: Inhibition of human HT cell growth in a cell viability assay.

LS-1034 = format: functional, cell-based
Description: SANGER: Inhibition of human LS-1034 cell growth in a cell viability assay.

KM12 = format: functional, cell-based;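 further: KM12 cell growth inhibition, read out with a cell viability assay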
Description: SANGER: Inhibition of human KM12 cell growth in a cell viability assay.

LB831-BLC = format: functional, cell-based;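 further: growth inhibition of LB831-BLC cells, read out with a cell viability assay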
Description: SANGER: Inhibition of human LB831-BLC cell growth in a cell viability assay.

697 = format: functional, cell-based
Description: SANGER: Inhibition of human 697 cell growth in a cell viability assay.

KM-H2 = format: functional, cell-based;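 further: growth inhibition of KM-H2 cells, read out by a cell viability assay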
Description: SANGER: Inhibition of human KM-H2 cell growth in a cell viability assay.

ACN = format: functional, cell-based;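 further: growth inhibition of the human ACN cell line, read out via cell viability testing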
Description: SANGER: Inhibition of human ACN cell growth in a cell viability assay.

K562 = format: functional, cell-based
Description: SANGER: Inhibition of human K-562 cell growth in a cell viability assay.

U-87 MG = format: functional, cell-based, U-87MG ATCC;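 further: growth inhibition of the cells measured with a viability assay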
Description: SANGER: Inhibition of human U-87-MG cell growth in a cell viability assay.

RPMI-8866 = format: functional, cell-based
Description: SANGER: Inhibition of human RPMI-8866 cell growth in a cell viability assay.

C2BBe1 = format: functional, cell-based;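 further: growth inhibition of C2BBe1 cells, read out through a viability assay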
Description: SANGER: Inhibition of human C2BBe1 cell growth in a cell viability assay.

IA-LM = format: functional, cell-based;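 further: cell viability assay measuring growth inhibition of human IA-LM cells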
Description: SANGER: Inhibition of human IA-LM cell growth in a cell viability assay.

DOHH-2 = format: functional, cell-based;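 further: growth inhibition of human DOHH-2 cells, read out with a cell viability assay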
Description: SANGER: Inhibition of human DOHH-2 cell growth in a cell viability assay.

QIMR-WIL = format: functional, cell-based;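 further: growth inhibition of QIMR-WIL cells, read out with a cell viability assay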
Description: SANGER: Inhibition of human QIMR-WIL cell growth in a cell viability assay.

NCI-H226 = format: functional, cell-based;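 further: cell viability read-out used to gauge growth inhibition of the cells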
Description: SANGER: Inhibition of human NCI-H226 cell growth in a cell viability assay.

LS-411N = format: functional, cell-based
MHH-PREB-1 = format: functional, cell-based;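 further: cell viability assay measuring inhibition of proliferation of human MHH-PREB-1 cells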
Description: SANGER: Inhibition of human MHH-PREB-1 cell growth in a cell viability assay.

NB5 = format: functional, cell-based;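 further: growth inhibition of NB5 cells, read out as cell viability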
Description: SANGER: Inhibition of human NB5 cell growth in a cell viability assay.

TK-10 = format: functional, cell-based;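 further: growth inhibition of TK-10 cells, read out in a cell viability assay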
Description: SANGER: Inhibition of human TK10 cell growth in a cell viability assay.

NB69 = format: functional, cell-based;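 further: growth inhibition of NB69 cells, determined by a cell viability assay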
Description: SANGER: Inhibition of human NB69 cell growth in a cell viability assay.

UACC-257 = format: functional, cell-based
Description: SANGER: Inhibition of human UACC-257 cell growth in a cell viability assay.

SHP77 = format: functional, cell-based, SHP-77;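 further: growth inhibition of human SHP-77 cells measured by a cell viability assay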
Description: SANGER: Inhibition of human SHP-77 cell growth in a cell viability assay.

CCRF-CEM = format: functional, cell-based;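 further: inhibition of CCRF-CEM cell growth, measured by a cell viability assay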
Description: SANGER: Inhibition of human CCRF-CEM cell growth in a cell viability assay.

A101D = format: functional, cell-based;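 further: growth inhibition of the cell line, measured with a viability assay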
Description: SANGER: Inhibition of human A101D cell growth in a cell viability assay.

SNU-C2B = format: functional, cell-based;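 further: cell viability readout used to measure compound-driven suppression of SNU-C2B cell proliferation, IC50 marking half-maximal growth inhibition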
Description: SANGER: Inhibition of human SNU-C2B cell growth in a cell viability assay.

SW 954 = format: functional, cell-based;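 further: growth inhibition of SW954 human cancer cells, read out as cell viability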
Description: SANGER: Inhibition of human SW954 cell growth in a cell viability assay.

OCI-AML2 = format: functional, cell-based;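 further: growth inhibition of OCI-AML2 cells, read out with a cell viability assay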
Description: SANGER: Inhibition of human OCI-AML2 cell growth in a cell viability assay.

DU-4475 = format: functional, cell-based
Description: SANGER: Inhibition of human DU-4475 cell growth in a cell viability assay.

A4-Fuk = format: functional, cell-based;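 further: growth inhibition of A4-Fuk cells, read out by a cell viability assay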
Description: SANGER: Inhibition of human A4-Fuk cell growth in a cell viability assay.

LB1047-RCC = format: functional, cell-based;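 further: inhibition of cell growth, determined with a cell viability assay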
Description: SANGER: Inhibition of human LB1047-RCC cell growth in a cell viability assay.

LXF-289 cell line = format: functional, cell-based
Description: SANGER: Inhibition of human LXF-289 cell growth in a cell viability assay.

JVM-3 = format: functional, cell-based;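 further: growth inhibition of human JVM-3 cells, read out with a cell viability assay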
Description: SANGER: Inhibition of human JVM-3 cell growth in a cell viability assay.

TE-10 = format: functional, cell-based;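 further: growth inhibition of TE-10 cells, measured by a cell viability assay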
Description: SANGER: Inhibition of human TE-10 cell growth in a cell viability assay.

GI-1 = format: functional, cell-based;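 further: growth inhibition of human GI-1 cells, measured with a cell viability readout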
Description: SANGER: Inhibition of human GI-1 cell growth in a cell viability assay.

ONS-76 = format: functional, cell-based
Description: SANGER: Inhibition of human ONS-76 cell growth in a cell viability assay.

COLO-668 = format: functional, cell-based
Description: SANGER: Inhibition of human COLO-668 cell growth in a cell viability assay.

DMS-114 = format: functional, cell-based
COLO-829 = format: functional, cell-based
Description: SANGER: Inhibition of human COLO-829 cell growth in a cell viability assay.

Measured: IC50

CC(O)(CS(=O)(=O)c1ccc(F)cc1)C(=O)Nc1ccc(C#N)c(C(F)(F)F)c1 (stereo not given) [BICALUTAMIDE]
> 1020 nM: MMAC-SF | ACN | A101D | DU-4475 | COLO-829
> 1.02 µM: all other assays above

CCCS(=O)(=O)Nc1ccc(F)c(C(=O)c2c[nH]c3ncc(Cl)cc23)c1F [PLX-4720]
686 nM: MMAC-SF
74.6 nM: DU-4475
326 nM: A101D
3.55 µM: 697
390 nM: COLO-829
385 nM: ACN
9.57 µM: JVM-3
> 10 µM: all other assays above
